Assay results from ChEMBL document CHEMBL5247640 (J Med Chem, 2023).
pEC50: −log10 of the molar value.

Columns and labels:
[1] = molecular target: T1, Thyroid hormone receptor alpha (Homo sapiens, UniProt P10827); assay: Agonist activity at human THRalpha transfected in Huh7 cells co-transfected with luciferase reporter plasmid assessed as […] luciferase activity incubated for 16 hrs by Steady-Glo luciferase assay; assay type: cell-based, Huh-7
T1 sequence (P10827 whole entry): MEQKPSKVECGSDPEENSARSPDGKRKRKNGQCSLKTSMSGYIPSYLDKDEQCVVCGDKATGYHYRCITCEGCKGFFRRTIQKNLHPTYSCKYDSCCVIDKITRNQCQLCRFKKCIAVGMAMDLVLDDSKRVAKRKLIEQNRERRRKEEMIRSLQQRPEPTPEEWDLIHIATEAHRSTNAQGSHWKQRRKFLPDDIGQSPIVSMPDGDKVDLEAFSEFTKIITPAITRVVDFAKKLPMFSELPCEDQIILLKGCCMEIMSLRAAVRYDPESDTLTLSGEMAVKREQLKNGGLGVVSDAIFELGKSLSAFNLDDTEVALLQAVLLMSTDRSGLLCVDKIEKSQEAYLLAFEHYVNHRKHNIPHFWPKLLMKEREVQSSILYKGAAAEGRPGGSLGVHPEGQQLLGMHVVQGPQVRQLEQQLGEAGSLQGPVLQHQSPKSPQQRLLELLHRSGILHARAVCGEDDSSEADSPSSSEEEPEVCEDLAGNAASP

[2] = molecular target: T2, Thyroid hormone receptor beta (Homo sapiens, UniProt P10828); assay: Agonist activity at human THRbeta transfected in Huh7 cells co-transfected with luciferase reporter plasmid assessed as […] luciferase activity incubated for 16 hrs by Steady-Glo luciferase assay; assay type: cell-based, Huh-7
T2 sequence (P10828 whole entry): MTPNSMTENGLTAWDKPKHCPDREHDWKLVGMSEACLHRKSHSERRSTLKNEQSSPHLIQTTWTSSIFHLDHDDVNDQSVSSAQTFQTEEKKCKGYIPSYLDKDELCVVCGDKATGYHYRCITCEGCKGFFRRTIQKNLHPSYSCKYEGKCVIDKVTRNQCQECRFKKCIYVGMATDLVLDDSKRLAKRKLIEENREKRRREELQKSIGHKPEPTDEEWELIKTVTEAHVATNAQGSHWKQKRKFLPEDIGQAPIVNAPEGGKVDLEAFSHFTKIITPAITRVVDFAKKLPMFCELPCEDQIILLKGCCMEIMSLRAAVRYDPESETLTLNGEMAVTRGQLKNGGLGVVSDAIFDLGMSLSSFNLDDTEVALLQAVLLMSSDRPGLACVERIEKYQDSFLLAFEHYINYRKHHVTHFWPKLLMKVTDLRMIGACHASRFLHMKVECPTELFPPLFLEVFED

[3] = Fold of selectivity, ratio of compound EC50/T3 EC50 for THRalpha to ratio of compound EC50/T3 EC50 for THRbeta
[4] = Half life in ICR mouse at 30 mg/kg, po measured after 24 hrs by LC-MS/MS analysis; assay type: ADME, organism-based; conditions: in vivo
[5] = Tmax in ICR mouse at 30 mg/kg, po measured after 24 hrs by LC-MS/MS analysis; assay type: ADME, organism-based; conditions: in vivo
[6] = Cmax in ICR mouse at 30 mg/kg, po measured after 24 hrs by LC-MS/MS analysis; assay type: ADME, organism-based; parameters: time 24 hrs, dose 30 mg/kg, route po; conditions: in vivo
[7] = AUClast in ICR mouse at 30 mg/kg, po measured after 24 hrs by LC-MS/MS analysis; assay type: ADME, organism-based; parameters: dose 30 mg/kg, time 24 hrs, route po; conditions: in vivo
[8] = Metabolic stability in human liver microsomes assessed as half life; assay type: ADME, Microsome
[9] = Metabolic stability in rat liver microsomes assessed as half life; assay type: ADME, Microsome
[10] = Metabolic stability in mouse liver microsomes assessed as half life; assay type: ADME, Microsome
[11] = Metabolic stability in human liver microsomes assessed as intrinsic clearance; assay type: ADME, Microsome
[12] = Metabolic stability in rat liver microsomes assessed as intrinsic clearance; assay type: ADME, Microsome
[13] = Metabolic stability in mouse liver microsomes assessed as intrinsic clearance; assay type: ADME, Microsome
[14] = Toxicity in ICR mouse assessed as decrease in serum total cholesterol level at 30 mg/kg, po administered as single dose measured after 24 hrs by automated biochemical analyzer; assay type: organism-based; parameters: scale not given: the % may be the effect or the level left; conditions: in vivo

| pEC50 [1] | pEC50 [2] | Compound | Ratio [3] | further results |
| --- | --- | --- | --- | --- |
| 6.09 | 6.70 | CC(C)n1c(=O)ccc2c1ccn2-c1c(Cl)cc(NC(=O)c2noc(=O)[nH]2)cc1Cl | 6.4 |  |
| < 4.00 | < 4.00 | N#Cc1nn(-c2cc(Cl)c(-n3ccc4ccc(O)cc43)c(Cl)c2)c(=O)[nH]c1=O |  |  |
| 6.37 | 7.15 | N#Cc1nn(-c2cc(Cl)c(-n3ccc4c3ccc(=O)n4CC(F)(F)F)c(Cl)c2)c(=O)[nH]c1=O | 7.4 |  |
| 7.40 | 7.40 | CC(C)n1c(=O)ccc2c1ccn2-c1c(Cl)cc(-c2n[nH]c(=O)[nH]c2=O)cc1Cl | 1 |  |
| 6.13 | 6.70 | Cn1c(=O)ccc2c1ccn2-c1c(Cl)cc(-n2nc(C#N)c(=O)[nH]c2=O)cc1Cl | 6 | half-life [4]: 7 h; Tmax [5]: 3 h; Cmax [6]: 2170 ng/mL; AUC(0-t) at 24 h [7]: 26000 ng·h/mL; half-life [8]: 3.07 h; half-life [9]: 3.43 h; half-life [10]: 11.6 h; CLH [11]: 11.4 mL/min/g; CLH [12]: 10.2 mL/min/g; CLH [13]: 3 mL/min/g; Activity [14]: 33.5% |
| 5.85 | 6.19 | N#Cc1nn(-c2cc(Cl)c(-n3ccc4cc(O)ccc43)c(Cl)c2)c(=O)[nH]c1=O | 4.1 |  |
| 7.30 | 7.52 | Cc1c(O)ccc2c1ccn2-c1c(Cl)cc(-n2nc(C#N)c(=O)[nH]c2=O)cc1Cl | 2.9 | half-life [4]: 5.87 h; Tmax [5]: 0.42 h; Cmax [6]: 2080 ng/mL; AUC(0-t) at 24 h [7]: 5990 ng·h/mL |
| < 5.43 | < 5.92 | N#Cc1nn(-c2cc(Cl)c(-n3ccc4[nH]c(=O)ccc43)c(Cl)c2)c(=O)[nH]c1=O |  |  |
| 6.92 | 7.70 | N#Cc1nn(-c2cc(Cl)c(-n3ccc4c3ccc(=O)n4C3CCC3)c(Cl)c2)c(=O)[nH]c1=O | 7.5 |  |
